A short description of series [1]: Absorbance peak (Flex Station II). Format: physicochemical. The procedure:
(§1) The compounds were dissolved in the solvents and at the concentrations indicated in Table 2 and the absorbance and emission peaks were measured (measured using a Flex Station II, Model 384 by Molecular Devices Comp.).

The nature of series [2]: physchem.
A short description of series [3]: Emission peak (Flex Station II). Format: physicochemical. The procedure:
as §1

Series [4] can be described thus: Solubilization of chromophores in solvents. The following applies: 1 M NaOH, aqueous buffer.

The structures appear in SMILES notation. Converted amounts (≈) assume the structure as drawn. “And” between values parts separate entries of the source, which are not always exact repeats. Equal entries are not always repeated.

As to `CCCCCCCCC[C@H](O)CC(=O)CCc1ccc(O)c(OC)c1` [10-Gingerol], the “Absorbance peak (nm)” value in series [1] (gel and liquid) was 300 nm (gel and. Besides, the solubility in series [2] (organic solvent or mixture) is 10000 µg/mL (≈ 28.5 mM).

In the case of `O=C1c2cccc(O)c2C(=O)c2c(O)cc(CO)cc21` [Aloe-emodin], the “Emission peak (nm)” value is recorded as “nm, em. 600 nm” in series [3] (ex. 460 nm, gel) and “ex. 460 nm, em. 588” in series [3] (ex. 460 nm, liquid). Also, in series [2] (organic solvent or mixture), the solubility was found to be 10000 µg/mL (≈ 37 mM).

In the case of `COc1ccc2cc3[n+](cc2c1OC)CCc1cc2c(cc1-3)OCO2` [Berberine chloride hydrate], the “Emission peak (nm)” value in series [3] (ex. 340 nm, gel) is “ex. 340 nm, em. 538”; in series [3] (ex. 430 nm, liquid) it was “nm, em. 545 nm (liquid)”; in series [3] (ex. 460 nm, gel + liquid), “ex. 460 nm, em. 540”.

As for `O=C(/C=C/c1ccc(O)c(O)c1)OCCc1ccccc1` [Caffeic acid phenethyl ester (CAPE), Caffeic acid phenethyl ester], the solubility in series [2] (organic solvent or mixture) was 10000 µg/mL (≈ 35.2 mM).

Turning to `O=C(O)/C=C/c1ccc(O)c(O)c1` [Caffeic acid], the “Absorbance peak (nm)” value in series [1] (liquid) is 875 nm (liquid).

As to `COc1cc(/C=C/C(=O)/C=C(O)/C=C/c2ccc(O)c(OC)c2)ccc1O` [Curcumin], in series [1] (medium not stated), the “Absorbance peak (nm)” value was found to be 440 nm. The “Emission peak (nm)” value in series [3] (ex. 390 nm, liquid) is listed as “em. 540 nm (liquid);”; in series [3] (ex. 440 nm, gel) it was “ex. 440 nm, em. 552”; in series [3] (ex. 460 nm, gel) it was “ex. 460 nm, em. 555”; in series [3] (ex. 460 nm, liquid), “nm, em. 544 nm”. In series [2] (organic solvent or mixture), the solubility stood at 5000 µg/mL (≈ 13.6 mM).

On to `O=c1oc2c(O)c(O)cc3c(=O)oc4c(O)c(O)cc1c4c23` [Ellagic acid], for which, in series [1] (gel), the “Absorbance peak (nm)” value is “(liquid); 370 nm (gel)”. In addition, the “Emission peak (nm)” value in series [3] (ex. 370 nm, gel) is recorded as “ex. 370 nm, em. 736”.

For `O=C1C[C@@](O)(C(=O)O)C(C(=O)O)O1` (stereo partly drawn) [Garcinia acid], the “Absorbance peak (nm)” value in series [1] (gel and liquid) was 300 nm (gel and. Moreover, the solubility in series [2] (organic solvent or mixture) came to 10000 µg/mL (≈ 52.6 mM).

As for `Cc1cc(O)c2c(=O)c3c(O)cc(O)c4c5c(O)cc(O)c6c(=O)c7c(O)cc(C)c8c1c2c(c34)c(c78)c65` [Hypericin], the “Emission peak (nm)” value in series [3] (ex. 345 nm, liquid) is “nm, em. 700 nm”; in series [3] (ex. 460 nm, liquid) it was “ex. 460 nm, em. 700”; in series [3] (ex. 620 nm, liquid), “em. 700 nm (liquid);”. Also, in series [4], the solubility turned out to be 500 µg/mL (≈ 0.991 mM).

Take `CC(C)=CCC/C(C)=C/C=C/C(C)=C/C=C/C(C)=C/C=C/C=C(C)/C=C/C=C(C)/C=C/C=C(\C)CCC=C(C)C` [Lycopene]: the “Absorbance peak (nm)” value in series [1] (gel) is on record as 490 nm. Moreover, the solubility in series [2] (organic solvent or mixture) was 1000 µg/mL (≈ 1.86 mM).

`C/C=C1/[C@H](O[C@@H]2O[C@H](CO)[C@@H](O)[C@H](O)[C@H]2O)OC=C(C(=O)OC)[C@H]1CC(=O)OCCc1ccc(O)c(O)c1` [Oleuropein]: the “Absorbance peak (nm)” value in series [1] (gel and liquid) is recorded as 325 nm (gel and. For the same compound, the solubility in series [2] (organic solvent or mixture) came to 10000 µg/mL (≈ 18.5 mM).

`O=C(/C=C/C=C/c1ccc2c(c1)OCO2)N1CCCCC1` [Piperine]: the “Absorbance peak (nm)” value in series [1] (medium not stated) turned out to be 344 nm. For the same compound, the “Emission peak (nm)” value in series [3] (ex. 340 nm, medium not stated) is reported as “nm, em. 443 nm”; in series [3] (ex. 460 nm, gel), “ex. 460 nm, em. 634”.

For the compound `Oc1ccc(/C=C/c2cc(O)cc(O)c2)cc1` [Resveratrol], in series [2] (organic solvent or mixture), the solubility worked out at 10000 µg/mL (≈ 43.8 mM).

For the compound `C[n+]1cc2c3c(ccc2c2ccc4cc5c(cc4c21)OCO5)OCO3.[Cl-]` [Sanguinarine chloride hydrate], the “Emission peak (nm)” value is listed as “em. 600 nm (liquid);” in series [3] (ex. 300 nm, liquid); “nm, em. 590 nm” in series [3] (ex. 330 nm, gel); “ex. 405 nm, em. 600” in series [3] (ex. 405 nm, liquid); “ex. 460 nm, em. 591” in series [3] (ex. 460 nm, gel); “nm, em. 600 nm” in series [3] (ex. 460 nm, liquid). Moreover, the solubility in series [2] (organic solvent or mixture) was 3330 µg/mL.

In turn, `O=C(OC[C@H]1O[C@@H](OC(=O)c2cc(O)c(O)c(OC(=O)c3cc(O)c(O)c(O)c3)c2)[C@H](OC(=O)c2cc(O)c(O)c(OC(=O)c3cc(O)c(O)c(O)c3)c2)[C@@H](OC(=O)c2cc(O)c(O)c(OC(=O)c3cc(O)c(O)c(O)c3)c2)[C@@H]1OC(=O)c1cc(O)c(O)c(OC(=O)c2cc(O)c(O)c(O)c2)c1)c1cc(O)c(O)c(OC(=O)c2cc(O)c(O)c(O)c2)c1` [Tannic acid] had a solubility in series [2] (water) of 10000 µg/mL (≈ 5.88 mM).

Take `CC1=C(/C=C/C(C)=C/C=C/C(C)=C/C=C/C=C(C)/C=C/C=C(C)/C=C/C2=C(C)C[C@@H](O)CC2(C)C)C(C)(C)C[C@H](O)C1` [Zeaxanthin]: the “Absorbance peak (nm)” value in series [1] (gel and liquid) is 465 nm (gel and. In addition, the “Emission peak (nm)” value in series [3] (ex. 300 nm, gel) was 415 nm and 432 nm and 740 nm and 817 nm. Also, in series [2] (organic solvent or mixture), the solubility is 2000 µg/mL (≈ 3.52 mM).

Source of the values: US20200222537A1, “BIOPHOTONIC COMPOSITIONS AND USES THEREOF” (KLOX TECHNOLOGIES LIMITED, priority 2016, published 2020).
